The results in this text go back to patent US8071797B2 (priority 2008, dated 2011).

Tested on in one data set: not given
Experiment: not given
Details: not given
As a reminder, the melting point is the temperature, or range, at which the solid turns liquid. Turning to `CNC(=O)c1c(-c2ccc(Oc3ccccc3)cc2)oc2cc(N3CCN(C)S3(=O)=O)c(C3CC3)cc12` [Compound I-105, 5-Cyclopropyl-6-(5-methyl-1,1-dioxo-1λ^6-[1,2,5]thiadiazolidin-2-yl)-2-(4-phenoxy-phenyl)-benzofuran-3-carboxylic acid methylamide], the melting point is 105 to 107 °C.

A further data set addresses T1, HCV polymerase (NS5B570n-Con1) (Hepatitis C virus genotype 1b, UniProt Q9WMX2).
T1 construct: contains a 21 amino acid deletion at the C-terminus relative to the full-length HCV polymerase; 6-histidine (N); made in house; host or cells: E. coli BL21 (DE) pLysS
The experiment in a line: HCV NS5B RNA polymerase activity assay. The class given is biochemical, HCV Con1 strain. The following applies: IC50 NS5B polymerase assay, Table I. The procedure:
The enzymatic activity of HCV polymerase (NS5B570n-Con1) was measured as the incorporation of radiolabeled nucleotide monophosphates into acid insoluble RNA products. Unincorporated radiolabeled substrate was removed by filtration and scintillant was added to the washed and dried filter plate containing radiolabeled RNA product. The amount of RNA product generated by NS5B570-Con1 at the end of the reaction was directly proportional to the amount of light emitted by the scintillant.
The N-terminal 6-histidine tagged HCV polymerase, derived from HCV Con1 strain, genotype 1b (NS5B570n-Con1) contains a 21 amino acid deletion at the C-terminus relative to the full-length HCV polymerase and was purified from E. coli strain BL21 (DE) pLysS. The construct, containing the coding sequence of HCV NS5B Con1 (GenBank accession number AJ242654) was inserted into the plasmid construct pETI 7b, downstream of a T7 promoter expression cassette and transformed into E. coli. A single colony was grown overnight as a starter culture and later used inoculate 10 L of LB media supplemented with 100 μg/mL ampicillin at 37° C. Protein expression was induced by the addition of 0.25 mM isopropyl-β-D-thiogalactopyranoside (IPTG) when optical density at […] of the culture was between 0.6 and 0.8 and cells were harvested after 16 to 18 h at 30° C. NS5B570n-Con1 was purified to homogeneity using a three-step protocol including subsequent column chromatography on Ni-NTA, SP-Sepharose HP and Superdex 75 resins.
Each 50 μl enzymatic reaction contained 20 nM RNA template derived from the complementary sequence of the Internal Ribosome Entry Site (cIRES), 20 nM NS5B570n-Con1 enzyme, 0.5 μCi of tritiated UTP (Perkin Elmer catalog no. TRK-412; specific activity: 30 to 60 Ci/mmol; stock solution concentration from 7.5×10^-5 M to 20.6×10^-6 M), 1 μM each ATP, CTP, and GTP, 40 mM Tris-HCl pH 8.0, 40 mM NaCl, 4 mM DTT (dithiothreitol), 4 mM MgCl2, and 5 μl of compound serial diluted in DMSO. Reaction mixtures were assembled in 96-well filter plates (cat #MADVN0B, Millipore Co.) and incubated for 2 h at 30° C. Reactions were stopped by addition of 10% final (v/v) trichloroacetic acid and incubated for 40 min at 4° C. Reactions were filtered, washed with 8 reaction volumes of 10% (v/v) trichloroacetic acetic acid, 4 reaction volumes of 70% (v/v) ethanol, air dried, and 25 μl of scintillant (Microscint 20, Perkin-Elmer) was added to each reaction well.
The amount of light emitted from the scintillant was converted to counts per minute (CPM) on a Topcount® plate reader (Perkin-Elmer, Energy Range: Low, Efficiency Mode Normal, Count Time: 1 min, Background Subtract: none, Cross talk reduction: Off).
Data was analyzed in Excel® (Microsoft®) and ActivityBase® (idbsg). The reaction in the absence of enzyme was used to determine the background signal, which was subtracted from the enzymatic reactions. Positive control reactions were performed in the absence of compound, from which the background corrected activity was set as 100% polymerase activity. All data was expressed as a percentage of the positive control. The compound concentration at which the enzyme-catalyzed rate of RNA synthesis was reduced by 50% (IC50) was calculated by fitting
[formula] equation (t) to the data.where “Y” corresponds to the relative enzyme activity (in %), “% Min” is the residual relative activity at saturating compound concentration, “% Max” is the relative maximum enzymatic activity, “X” corresponds to the compound concentration, and “S” is the Hill coefficient (or slope).
The IC50 is the point on the concentration scale where inhibition reaches its midpoint. Read a low IC50 as higher potency. `CNC(=O)c1c(-c2ccc(Oc3ccccc3)cc2)oc2cc(N3CCN(C)S3(=O)=O)c(C3CC3)cc12` [Compound I-105, 5-Cyclopropyl-6-(5-methyl-1,1-dioxo-1λ^6-[1,2,5]thiadiazolidin-2-yl)-2-(4-phenoxy-phenyl)-benzofuran-3-carboxylic acid methylamide] came in with an IC50 of 41 nM. This lies in the double-digit nanomolar range. Still for that read-out and setting: with `CCc1cc2c(C(=O)NC)c(-c3ccc(Oc4ccc(F)cc4)cc3)oc2cc1N(CCO)S(C)(=O)=O` [Compound I-51, 5-Ethyl-2-[4-(4-fluoro-phenoxy)-phenyl]-6-[(2-hydroxy-ethyl)-methanesulfonyl-amino]-benzofuran-3-carboxylic acid methylamide] the figure was 88 nM; with `CNC(=O)c1c(-c2ccc(Oc3ccc(F)cc3)cc2)oc2cc(N(C3CCNC3)S(C)(=O)=O)c(C3CC3)cc12` (centres unmarked) [Compound I-91, 5-Cyclopropyl-2-[4-(4-fluoro-phenoxy)-phenyl]-6-(methanesulfonyl-pyrrolidin-3-yl-amino)-benzofuran-3-carboxylic acid methylamide], 24 nM; with `CNC(=O)c1c(-c2ccc(Oc3ccc(F)cc3)cc2)oc2cc(N(C3CCN(S(C)(=O)=O)C3)S(C)(=O)=O)c(C3CC3)cc12` (centres unmarked) [Compound I-94, 5-cyclopropyl-2-[4-(4-fluoro-phenoxy)-phenyl]-6-[methanesulfonyl-(1-methanesulfonyl-pyrrolidin-3-yl)-amino]-benzofuran-3-carboxylic acid methylamide], 28 nM. Same read-out and setting: as for `CNC(=O)c1c(-c2ccc(Oc3ccc(Cl)cc3)cc2)oc2cc(N(CCO)S(C)(=O)=O)c(OC(C)C)cc12` [Compound I-27], the figure is 70 nM. `CNC(=O)c1c(-c2ccc(Oc3ccc(F)cc3)cc2)oc2cc(N(CC(F)(F)CN)S(C)(=O)=O)c(C3CC3)cc12` [Compound I-115, 6-[(3-Amino-2,2-difluoro-propyl)-methanesulfonyl-amino]-5-cyclopropyl-2-[4-(4-fluoro-phenoxy)-phenyl]-benzofuran-3-carboxylic acid methylamide] displayed an IC50 of 29 nM. This IC50 lies about 2.4-fold lower than the previous one.

As for `CNC(=O)c1c(-c2ccc(Oc3ccc(F)cc3)cc2)oc2cc(N(CCN)S(C)(=O)=O)c(OC)cc12` [Compound I-53], half-maximal inhibition (IC50) was put at 250 nM.

`CNC(=O)c1c(-c2ccc(Nc3ccc(C)cc3)cc2)oc2cc(N(CCO)S(C)(=O)=O)c(OC)cc12` [Compound I-20] yielded an IC50 of 92 nM.

In turn, `CCc1cc2c(C(=O)NC)c(-c3ccc(Oc4ccc(F)cc4)cc3)oc2cc1N(C)S(C)(=O)=O` [Compound I-52] yielded an IC50 of 128 nM. Take `CNC(=O)c1c(-c2ccc(Oc3cccc(Cl)c3)cc2)oc2cc(N(CCO)S(C)(=O)=O)c(OC)cc12` [Compound I-38]: the IC50 came to 50 nM. On to `CNC(=O)c1c(-c2ccc(Nc3ccc(F)cc3)cc2)oc2cc(N(CCO)S(C)(=O)=O)c(OC)cc12` [Compound I-2], for which it took 100 nM to reach half-maximal inhibition (IC50). Same read-out and setting: as for `CNC(=O)c1c(-c2ccc(Oc3ccc(F)cc3)cc2)oc2cc(N(CCOC)S(C)(=O)=O)c(C3CC3)cc12` [Compound I-57], the figure is 110 nM; as for `CNC(=O)c1c(-c2ccc(Oc3ccccc3)cc2)oc2cc(-c3c(C)n[nH]c3C)c(C3CC3)cc12` [Compound I-101], 318 nM; as for `CNC(=O)c1c(-c2ccc(Nc3ccc(F)c(F)c3)cc2)oc2cc(N(CCO)S(C)(=O)=O)c(OC)cc12` [Compound I-10], 65 nM.

Compound `CNC(=O)c1c(-c2ccc(Nc3ccc(Cl)cc3)cc2)oc2cc(N(CCO)S(C)(=O)=O)c(OC(C)C)cc12` [Compound I-30] displayed a half-maximal inhibitory concentration (IC50) of 815 nM. In the case of `CNC(=O)c1c(-c2ccc(Nc3ccc(F)cc3F)cc2)oc2cc(N(CCO)S(C)(=O)=O)c(OC)cc12` [Compound I-14], half-maximal inhibition (IC50) required 24 nM.

`CNC(=O)c1c(-c2ccc(Oc3ccc(F)cc3F)cc2)oc2cc(N(CCO)S(C)(=O)=O)c(OC(C)C)cc12` [Compound I-39] displayed an IC50 of 195 nM. `CNC(=O)c1c(-c2ccc(Oc3ccc(F)cc3)cc2)oc2cc(N(CC(O)CN)S(C)(=O)=O)c(C3CC3)cc12` (centres unmarked) [Compound I-97, 6-[(3-Amino-2-hydroxy-propyl)-methanesulfonyl-amino]-5-cyclopropyl-2-[4-(4-fluoro-phenoxy)-phenyl]-benzofuran-3-carboxylic acid methylamide] yielded an IC50 of 48 nM. Consider `CNC(=O)c1c(-c2ccc(Nc3cccc(F)c3)cc2)oc2cc(N(CCO)S(C)(=O)=O)c(OC(C)C)cc12` [Compound I-29], for which the IC50 worked out at 94 nM. The compound `CNC(=O)c1c(-c2ccc(Oc3ccc(F)cc3)cc2)oc2cc(N(CC(C)O)S(C)(=O)=O)c(C3CC3)cc12` (centres unmarked) [Compound I-68] gave an IC50 of 26 nM. The compound `CNC(=O)c1c(-c2ccc(Oc3cccc(F)c3F)cc2)oc2cc(N(CCO)S(C)(=O)=O)c(OC)cc12` [Compound I-22] registered an IC50 of 55 nM. Consider `CNC(=O)c1c(-c2ccc(Oc3ccc(F)cc3)cc2)oc2cc(N(CC3CCOCC3)S(C)(=O)=O)c(C3CC3)cc12` [Compound I-56], for which inhibition was half-maximal at 157 nM (IC50).

The compound `CCCc1cc2c(C(=O)NC)c(-c3ccc(Oc4ccccc4F)cc3)oc2cc1N(CCO)S(C)(=O)=O` [Compound I-65, 2-[4-(2-Fluoro-phenoxy)-phenyl]-6-[(2-hydroxy-ethyl)-methanesulfonyl-amino]-5-propyl-benzofuran-3-carboxylic acid methylamide] yielded an IC50 of 21 nM. Against the preceding compound, the IC50 is about 7.5-fold lower. The same measure, in the same setting: with `CNC(=O)c1c(-c2ccc(Oc3ccccc3F)cc2)oc2cc(N(CCO)S(C)(=O)=O)c(OC)cc12` [Compound I-9] the figure was 85 nM; with `CNC(=O)c1c(-c2ccc(Oc3ccc(F)cc3)cc2)oc2cc(N(CCCC#N)S(C)(=O)=O)c(C3CC3)cc12` [Compound I-96], 7 nM; with `CNC(=O)c1c(-c2ccc(Nc3cccnc3)cc2)oc2cc(N(CCO)S(C)(=O)=O)c(OC)cc12` [Compound I-122], 2050 nM.

For the compound `CNC(=O)c1c(-c2ccc(Oc3ccc(F)cc3)cc2)oc2cc(N(CCS(N)(=O)=O)S(C)(=O)=O)c(C3CC3)cc12` [Compound I-119, 5-Cyclopropyl-2-[4-(4-fluoro-phenoxy)-phenyl]-6-[methanesulfonyl-(2-sulfamoyl-ethyl)-amino]-benzofuran-3-carboxylic acid methylamide], the half-inhibitory concentration (IC50) was determined as 14 nM. Still for that read-out and setting: as for `CNC(=O)c1c(-c2ccc(Oc3ccc(F)cc3)cc2)oc2cc(N(CCNC(C)=O)S(C)(=O)=O)c(C3CC3)cc12` [Compound I-79], the figure is 68 nM; as for `CNC(=O)c1c(-c2ccc(Oc3ccc(F)cc3)cc2)oc2cc(N(CCC[S+](C)[O-])S(C)(=O)=O)c(C3CC3)cc12` (centres unmarked) [Compound I-121], 5 nM; as for `CNC(=O)c1c(-c2ccc(Oc3ccc(F)cc3)cc2)oc2cc(N(CC(C)(C)O)S(C)(=O)=O)c(C3CC3)cc12` [Compound I-78], 55 nM. Compound `CNC(=O)c1c(-c2ccc(Oc3ccc(F)cc3)cc2)oc2cc(N(C3CCOCC3)S(C)(=O)=O)c(C3CC3)cc12` [Compound I-72] returned an IC50 of 591 nM. Consider `CNC(=O)c1c(-c2ccc(Oc3cccc(C#N)c3)cc2)oc2cc(N(CCO)S(C)(=O)=O)c(OC)cc12` [Compound I-47], for which the IC50 amounted to 338 nM.

`CNC(=O)c1c(-c2ccc(Oc3ccc(F)cc3)cc2)oc2cc(N(CCSC)S(C)(=O)=O)c(C3CC3)cc12` [Compound I-81, 5-Cyclopropyl-2-[4-(4-fluoro-phenoxy)-phenyl]-6-[methanesulfonyl-(2-methylsulfanyl-ethyl)-amino]-benzofuran-3-carboxylic acid methylamide]: the IC50 was determined as 16 nM.

Turning to `CNC(=O)c1c(-c2ccc(Oc3ccccc3Cl)cc2)oc2cc(N(CCO)S(C)(=O)=O)c(OC(C)C)cc12` [Compound I-49], it took 143 nM to reach half-maximal inhibition (IC50).
